This is an account of results in ChEMBL document CHEMBL4422618, “Translational impact of novel widely pharmacological characterized mofezolac-derived COX-1 inhibitors combined with bortezomib on human multiple myeloma cell lines viability” (Eur J Med Chem, 2019).

Data set [1] concerns the target T1, Prostaglandin G/H synthase 1 (Ovis aries, UniProt P05979).
T1 sequence (P05979 whole entry): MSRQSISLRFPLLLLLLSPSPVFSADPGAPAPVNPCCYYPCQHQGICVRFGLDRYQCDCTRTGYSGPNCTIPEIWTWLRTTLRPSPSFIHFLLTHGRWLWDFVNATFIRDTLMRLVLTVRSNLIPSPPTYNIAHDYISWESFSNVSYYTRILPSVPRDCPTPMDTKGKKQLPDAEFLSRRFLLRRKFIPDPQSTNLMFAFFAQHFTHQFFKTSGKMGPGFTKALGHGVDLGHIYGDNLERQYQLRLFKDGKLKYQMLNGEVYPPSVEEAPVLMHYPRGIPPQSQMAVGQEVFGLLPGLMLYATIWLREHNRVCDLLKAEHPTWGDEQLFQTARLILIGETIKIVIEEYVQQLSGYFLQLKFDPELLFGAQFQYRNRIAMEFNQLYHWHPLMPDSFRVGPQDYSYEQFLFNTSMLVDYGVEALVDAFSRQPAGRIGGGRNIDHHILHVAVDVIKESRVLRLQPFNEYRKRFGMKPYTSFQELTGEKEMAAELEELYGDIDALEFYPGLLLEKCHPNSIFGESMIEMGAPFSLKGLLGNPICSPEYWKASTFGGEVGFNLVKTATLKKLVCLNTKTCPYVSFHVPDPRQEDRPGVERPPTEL
Put plainly: Inhibition of ovine COX1 using arachidonic acid as substrate by colorimetric assay.

The test system of another data set is Platelet. Put plainly: Antiplatelet activity in human platelet rich plasma assessed as inhibition of arachidonic acid-induced platelet aggregation preincubated for 2 mins followed by arachidonic acid addition by turbidimetric method. The class given is functional, cell-based.
In data set [2] the test system is Plasma. Description: Anticoagulant activity in human platelet poor plasma assessed as activated partial thromboplastin time at 100 uM incubated for 15 mins at room temperature and subsequent incubation for 2 mins at 37 degreeC followed by cephalin addition and measured after 2 mins for every secs in presence of CaCl2. The class given is functional.
Data set [3] relates to Plasma. Put plainly: Anticoagulant activity in human platelet poor plasma assessed as prothrombin time at 100 uM incubated for 15 mins at room temperature and subsequent incubation for 2 mins at 37 degreeC followed by PBS addition and measured after 3 mins for every secs in presence of calcium thromboplastin. The class given is functional.
The nature of data set [4]: Hemolytic activity in erythrocytes (unknown origin) at 100 uM after 3 hrs by spectrophotometric analysis. The settings on record: read-out: Activity. The class given is ADME, cell-based, Erythrocyte.
Data set [5] can be described thus: Genotoxicity in Escherichia coli PQ35 at 500 uM after overnight incubation by SOS chromotest. The class given is toxicity.
Data set [6] in a line: Genotoxicity in Escherichia coli PQ37 at 500 uM after overnight incubation by SOS chromotest. The class given is toxicity.
Data set [7] has as its system RPMI-8226. Description: Cytotoxicity against human RPMI8226 cells assessed as reduction in cell viability at 1.7 uM after 48 hrs by CCK8 assay relative to control. Type of data set: functional. A general note: Formazan colour is commonly taken as a measure of viable cells.
Data set [8] deals with NCI-H929. Put plainly: Potentiation of bortezomib-induced cytotoxicity against human NCI-H929 cells assessed as reduction in cell viability at 42 nM after 48 hrs in presence of bortezomib by CCK8 assay. The class given is functional, cell-based.
The test system of data set [9] is RPMI-8226. Description: Potentiation of bortezomib-induced cytotoxicity against human RPMI8226 cells assessed as reduction in cell viability at 42 nM after 48 hrs in presence of bortezomib by CCK8 assay. The class given is functional.
The test system of data set [10] is NCI-H929. Description: Cell cycle arrest in human NCI-H929 cells assessed as accumulation at G0/G1 phase at 42 nM in presence of bortezomib after 48 hrs by propidium iodide/RNase staining based flow cytometric method relative to bortezomib alone. Type of data set: functional.
Data set [11] deals with NCI-H929. Description: Cell cycle arrest in human NCI-H929 cells assessed as accumulation at S phase at 42 nM in presence of bortezomib after 48 hrs by propidium iodide/RNase staining based flow cytometric method relative to bortezomib alone. Type of data set: functional.
The subject of data set [12] is RPMI-8226. Description: Cell cycle arrest in human RPMI8226 cells assessed as accumulation at G0/G1 phase at 42 nM after 48 hrs by propidium iodide/RNase staining based flow cytometric method. The class given is functional. Background: In flow cytometry, cells or beads pass a laser one at a time.
Data set [13] has as its system RPMI-8226. Put plainly: Cell cycle arrest in human RPMI8226 cells assessed as accumulation at S phase at 42 nM after 48 hrs by propidium iodide/RNase staining based flow cytometric method. Type of data set: functional.
Data set [14] deals with NCI-H929. Description: Induction of apoptosis in human NCI-H929 cells assessed as early apoptotic cells at 42 nM after 48 hrs by Annexin-V/propidium iodide staining based flow cytometric method (reference value: 17.1%). The class given is functional.
In data set [15] the test system is NCI-H929. Put plainly: Induction of apoptosis in human NCI-H929 cells assessed as necrotic cells at 42 nM after 48 hrs by Annexin-V/propidium iodide staining based flow cytometric method (reference value: 0.0034%). The class given is functional.
The subject of data set [16] is NCI-H929. Put plainly: Induction of apoptosis in human NCI-H929 cells assessed as early apoptotic cells at 42 nM after 48 hrs in presence of bortezomib by Annexin-V/propidium iodide staining based flow cytometric method (reference value: 17.1%). Type of data set: functional.
Data set [17] deals with NCI-H929. Put plainly: Induction of apoptosis in human NCI-H929 cells assessed as late apoptotic cells at 42 nM after 48 hrs in presence of bortezomib by Annexin-V/propidium iodide staining based flow cytometric method (reference value: 0.23%). Type of data set: functional.
Data set [18] has as its system NCI-H929. Put plainly: Induction of apoptosis in human NCI-H929 cells assessed as necrotic cells at 42 nM after 48 hrs in presence of bortezomib by Annexin-V/propidium iodide staining based flow cytometric method (reference value: 0.0034%). Type of data set: functional.
The subject of data set [19] is RPMI-8226. Put plainly: Induction of apoptosis in human RPMI8226 cells assessed as early apoptotic cells at 42 nM after 48 hrs in presence of bortezomib by Annexin-V/propidium iodide staining based flow cytometric method (reference value: 1.05%). The class given is functional.
Data set [20] deals with RPMI-8226. Description: Induction of apoptosis in human RPMI8226 cells assessed as late apoptotic cells at 42 nM after 48 hrs in presence of bortezomib by Annexin-V/propidium iodide staining based flow cytometric method (reference value: 0.21%). Type of data set: functional.
For data set [21], the system named is RPMI-8226. Description: Induction of apoptosis in human RPMI8226 cells assessed as necrotic cells at 42 nM after 48 hrs in presence of bortezomib by Annexin-V/propidium iodide staining based flow cytometric method (reference value: 0.090%). Type of data set: functional.
The subject of data set [22] is RPMI-8226. Description: Cell cycle arrest in human RPMI8226 cells assessed as accumulation at G0/G1 phase at 42 nM in presence of bortezomib after 48 hrs by propidium iodide/RNase staining based flow cytometric method relative to bortezomib. The class given is functional.

Active and inactive are the calls of the source. The rule behind the calls is not given here.

In the case of `C=Cc1onc(-c2ccc(OC)cc2)c1-c1ccc(OC)cc1`, the IC50 (in general, the midpoint of a concentration-inhibition curve) came to 42 nM in data set [1] and 630 nM in the data set with Platelet. The APTT in the data set with Plasma [2] was determined as 51.2 s. Besides, the PT in the data set with Plasma [3] is on record as 13.7 s. In addition, in data set [4], the hemolysis at 3 h, 100 µM was 0%. Besides, the Activity result in [5] is given as “Non-Toxic”; in data set [6], “Non-Toxic”; with RPMI-8226 [7] it was 4%; in the data set on RPMI-8226 [9], 66%; with NCI-H929 [10], 15%; in the data set with NCI-H929 [11] it was 15%. The Activity is given as 16.9% in the data set on NCI-H929 [14]; 0.012% in the data set on NCI-H929 [15]; 60.6% with NCI-H929 [16]; 0.22% with NCI-H929 [17]; 0% with NCI-H929 [18]; 9.68% in the data set with RPMI-8226 [19]. Also, the figures for the Activity in the data set with RPMI-8226 [20] and with RPMI-8226 [21] were 0.37% and 0.01%, respectively. Further, the outcome in the data set on NCI-H929 [8], in the data set with RPMI-8226 [12] and with RPMI-8226 [13] was inactive. In addition, in the data set with RPMI-8226 [22], the outcome was Active.
